Series [1] concerns the target T1, Adenylate cyclase type 8 (Homo sapiens, UniProt P40145). Nature of the series: Inhibition of Ca2+/ CAM stimulated human AC8 activity expressed in AC3 and AC6-knockout HEK293 cells assessed as A23187 stimulated cAMP accumulation incubated for 30 mins followed by […] in presence of IBMX for 1 hr by HTRF assay relative to control. The series is classed as cell-based. The arrangement: concentration or dose not given beside the values. Conditions: time 90.0 min.

Series [2] deals with T1, Adenylate cyclase type 8. Nature of the series: Inhibition of Ca2+/ CAM stimulated human AC8 activity expressed in AC3 and AC6-knockout HEK293 cells assessed as A23187 stimulated cAMP accumulation incubated for 30 mins followed by […] in presence of IBMX for 1 hr by HTRF assay. The class given is cell-based.
The next series deals with Adenylate cyclase type 1 (Homo sapiens, UniProt Q08828).
In a further series the test system is HEK293. Nature of the series: Cytotoxicity against HEK293 cells assessed as reduction in cell viability at 30 uM incubated for 1 hr by cell titer glo assay. The series is classed as toxicity, cell-based. Conditions: human, hek293, 1 h.
The target in series [3] is T1, Adenylate cyclase type 8. Briefly: Inhibition of Ca2+/ CAM stimulated human AC8 expressed in AC3 and AC6-knockout HEK293 cells assessed as A23187 stimulated cAMP accumulation at 10 uM incubated for 30 mins followed by […] in presence of IBMX for 1 hr by HTRF assay relative to control. The series is classed as cell-based. To be noted: time 90.0 min.
The target in series [4] is Vascular endothelial growth factor receptor 2 (Homo sapiens) (UniProt P35968). Briefly: Inhibition of human recombinant VEGFR2 assessed as inhibition of phosphorylation activity at 10 uM using 33P-labeleled peptide substrate by radiometric scintillation counting assay relative to control.
Series [5] can be described thus: Thermodynamic solubility of the compound in PBS at pH 7.4. The series is classed as physicochemical. To be noted: read-out: Therm_solubility.
Series [6] has as its target 5-hydroxytryptamine receptor 2B (Homo sapiens, UniProt P41595). Briefly: Binding affinity to 5-HT2B receptor (unknown origin) assessed as displacement of radioligand at 10 uM by radioligand binding assay.
The target in series [7] is Insulin receptor (Homo sapiens) (UniProt P06213). Briefly: Inhibition of human recombinant IRK assessed as inhibition of phosphorylation activity at 10 uM using 33P-labeleled peptide substrate by radiometric scintillation counting assay relative to control.
Series [8] has as its target Voltage-gated inwardly rectifying potassium channel KCNH2 (Homo sapiens, UniProt Q12809). Nature of the series: Displacement of [3H]astemizole from human ERG expressed in HEK293 cell membrane at 10 uM by Radiometric displacement assay relative to control. The class given is toxicity, cell membranes. To be noted: hek293, 10 µM.
The subject of a further series is Mus musculus. Briefly: Antiallodynic activity against CFA-induced C57BL/6N mouse inflammatory pain model assessed as inhibition of inflammatory mechanical allodynia at 5.6 mg/kg, ip measured over 2 hrs post treatment by von Frey test. The class given is functional, organism-based.

The structures appear in SMILES notation. Converted amounts (≈) assume the structure as drawn. The source made the active and inactive calls. The calls are words filed in the database; no cut-off is given here.

Sequence of 5-hydroxytryptamine receptor 2B (P41595 whole entry): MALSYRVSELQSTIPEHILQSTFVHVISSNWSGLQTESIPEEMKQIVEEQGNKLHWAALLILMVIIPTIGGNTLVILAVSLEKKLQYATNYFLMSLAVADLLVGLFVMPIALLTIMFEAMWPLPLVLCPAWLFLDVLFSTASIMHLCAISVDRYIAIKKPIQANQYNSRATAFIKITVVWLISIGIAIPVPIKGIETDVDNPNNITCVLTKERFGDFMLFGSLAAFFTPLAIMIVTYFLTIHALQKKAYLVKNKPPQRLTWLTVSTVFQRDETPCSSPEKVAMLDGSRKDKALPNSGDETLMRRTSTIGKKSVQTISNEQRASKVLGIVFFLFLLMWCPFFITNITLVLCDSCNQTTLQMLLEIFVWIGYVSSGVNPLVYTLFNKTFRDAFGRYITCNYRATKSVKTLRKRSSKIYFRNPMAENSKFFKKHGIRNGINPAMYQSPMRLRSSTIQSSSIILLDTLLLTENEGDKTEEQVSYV
T1 sequence (P40145 whole entry): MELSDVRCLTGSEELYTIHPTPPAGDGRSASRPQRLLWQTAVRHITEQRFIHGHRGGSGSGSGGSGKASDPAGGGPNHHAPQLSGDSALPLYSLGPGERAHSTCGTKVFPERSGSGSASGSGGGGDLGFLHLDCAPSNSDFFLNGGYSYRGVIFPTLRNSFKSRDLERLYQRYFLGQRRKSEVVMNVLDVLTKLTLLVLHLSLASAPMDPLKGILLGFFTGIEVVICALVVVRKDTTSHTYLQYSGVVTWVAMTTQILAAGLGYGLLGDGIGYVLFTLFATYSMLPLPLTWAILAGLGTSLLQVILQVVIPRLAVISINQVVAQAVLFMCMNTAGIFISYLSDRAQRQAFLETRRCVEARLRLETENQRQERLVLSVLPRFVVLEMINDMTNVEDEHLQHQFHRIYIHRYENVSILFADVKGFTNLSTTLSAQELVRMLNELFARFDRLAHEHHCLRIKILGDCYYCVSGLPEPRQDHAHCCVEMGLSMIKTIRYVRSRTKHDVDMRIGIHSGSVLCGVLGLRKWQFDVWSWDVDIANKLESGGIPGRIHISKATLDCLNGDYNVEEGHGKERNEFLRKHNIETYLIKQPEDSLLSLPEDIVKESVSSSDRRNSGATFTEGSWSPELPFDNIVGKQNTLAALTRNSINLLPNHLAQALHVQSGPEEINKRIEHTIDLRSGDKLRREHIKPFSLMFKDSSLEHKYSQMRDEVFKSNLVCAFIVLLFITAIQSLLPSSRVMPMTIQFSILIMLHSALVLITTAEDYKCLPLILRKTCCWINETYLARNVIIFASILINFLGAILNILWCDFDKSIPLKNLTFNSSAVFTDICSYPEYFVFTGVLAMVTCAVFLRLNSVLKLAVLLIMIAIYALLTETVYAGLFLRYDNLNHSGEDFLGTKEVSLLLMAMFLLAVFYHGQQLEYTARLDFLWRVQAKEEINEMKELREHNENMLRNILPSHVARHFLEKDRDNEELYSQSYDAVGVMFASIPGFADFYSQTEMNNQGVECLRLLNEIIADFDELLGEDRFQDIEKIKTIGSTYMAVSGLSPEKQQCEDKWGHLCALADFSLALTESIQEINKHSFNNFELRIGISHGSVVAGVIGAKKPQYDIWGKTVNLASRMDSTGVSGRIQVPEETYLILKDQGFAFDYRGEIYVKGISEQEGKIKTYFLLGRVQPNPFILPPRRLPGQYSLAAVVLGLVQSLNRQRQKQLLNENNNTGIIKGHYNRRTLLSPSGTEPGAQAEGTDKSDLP
Sequence of Adenylate cyclase type 1 (Q08828 whole entry): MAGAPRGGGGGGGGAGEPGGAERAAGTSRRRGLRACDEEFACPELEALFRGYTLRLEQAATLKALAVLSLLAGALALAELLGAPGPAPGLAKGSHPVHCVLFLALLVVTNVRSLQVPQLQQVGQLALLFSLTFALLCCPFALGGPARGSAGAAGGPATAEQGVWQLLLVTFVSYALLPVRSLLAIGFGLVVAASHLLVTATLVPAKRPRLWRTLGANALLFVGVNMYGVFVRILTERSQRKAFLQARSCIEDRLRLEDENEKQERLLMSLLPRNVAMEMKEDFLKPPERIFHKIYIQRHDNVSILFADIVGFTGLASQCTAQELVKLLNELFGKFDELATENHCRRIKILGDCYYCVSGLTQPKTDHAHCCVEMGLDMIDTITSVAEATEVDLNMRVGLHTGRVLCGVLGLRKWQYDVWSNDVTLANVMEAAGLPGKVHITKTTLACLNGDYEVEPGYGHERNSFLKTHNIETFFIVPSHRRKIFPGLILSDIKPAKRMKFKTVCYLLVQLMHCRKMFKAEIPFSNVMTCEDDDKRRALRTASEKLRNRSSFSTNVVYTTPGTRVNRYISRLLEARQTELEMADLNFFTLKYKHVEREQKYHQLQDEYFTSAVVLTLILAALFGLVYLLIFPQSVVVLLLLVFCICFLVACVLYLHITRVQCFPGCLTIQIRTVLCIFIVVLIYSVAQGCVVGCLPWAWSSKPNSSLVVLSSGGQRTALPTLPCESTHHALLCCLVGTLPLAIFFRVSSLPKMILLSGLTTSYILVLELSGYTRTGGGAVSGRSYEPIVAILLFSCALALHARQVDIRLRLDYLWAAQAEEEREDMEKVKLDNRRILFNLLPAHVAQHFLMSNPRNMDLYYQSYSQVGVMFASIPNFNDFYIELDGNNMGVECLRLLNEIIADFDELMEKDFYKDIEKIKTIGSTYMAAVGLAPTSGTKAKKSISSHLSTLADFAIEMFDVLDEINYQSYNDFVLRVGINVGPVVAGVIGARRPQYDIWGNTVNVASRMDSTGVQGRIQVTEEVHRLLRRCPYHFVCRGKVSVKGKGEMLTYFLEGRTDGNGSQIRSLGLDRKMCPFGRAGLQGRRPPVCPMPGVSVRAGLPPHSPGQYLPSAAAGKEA
Sequence of Insulin receptor (Homo sapiens) (P06213 28-758 limits assumed): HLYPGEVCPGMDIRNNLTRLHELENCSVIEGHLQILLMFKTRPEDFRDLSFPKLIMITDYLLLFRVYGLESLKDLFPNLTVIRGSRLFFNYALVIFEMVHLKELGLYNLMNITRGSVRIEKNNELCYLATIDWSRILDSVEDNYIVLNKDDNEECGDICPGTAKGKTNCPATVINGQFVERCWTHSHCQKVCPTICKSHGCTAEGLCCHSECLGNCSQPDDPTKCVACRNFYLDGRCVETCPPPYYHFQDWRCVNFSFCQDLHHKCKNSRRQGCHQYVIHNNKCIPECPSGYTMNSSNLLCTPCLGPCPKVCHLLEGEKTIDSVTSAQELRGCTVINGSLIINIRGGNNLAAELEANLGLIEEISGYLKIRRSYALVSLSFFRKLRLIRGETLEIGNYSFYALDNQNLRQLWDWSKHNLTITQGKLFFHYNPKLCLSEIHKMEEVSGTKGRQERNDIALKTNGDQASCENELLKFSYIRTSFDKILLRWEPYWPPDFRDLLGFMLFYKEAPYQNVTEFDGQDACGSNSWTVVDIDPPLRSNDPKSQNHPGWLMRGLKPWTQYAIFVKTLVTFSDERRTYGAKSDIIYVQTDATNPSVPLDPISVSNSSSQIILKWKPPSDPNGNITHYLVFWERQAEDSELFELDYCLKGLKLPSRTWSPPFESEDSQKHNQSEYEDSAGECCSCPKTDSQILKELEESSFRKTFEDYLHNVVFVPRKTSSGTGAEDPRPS
Sequence of Insulin receptor (Homo sapiens) (P06213 763-1382 limits assumed): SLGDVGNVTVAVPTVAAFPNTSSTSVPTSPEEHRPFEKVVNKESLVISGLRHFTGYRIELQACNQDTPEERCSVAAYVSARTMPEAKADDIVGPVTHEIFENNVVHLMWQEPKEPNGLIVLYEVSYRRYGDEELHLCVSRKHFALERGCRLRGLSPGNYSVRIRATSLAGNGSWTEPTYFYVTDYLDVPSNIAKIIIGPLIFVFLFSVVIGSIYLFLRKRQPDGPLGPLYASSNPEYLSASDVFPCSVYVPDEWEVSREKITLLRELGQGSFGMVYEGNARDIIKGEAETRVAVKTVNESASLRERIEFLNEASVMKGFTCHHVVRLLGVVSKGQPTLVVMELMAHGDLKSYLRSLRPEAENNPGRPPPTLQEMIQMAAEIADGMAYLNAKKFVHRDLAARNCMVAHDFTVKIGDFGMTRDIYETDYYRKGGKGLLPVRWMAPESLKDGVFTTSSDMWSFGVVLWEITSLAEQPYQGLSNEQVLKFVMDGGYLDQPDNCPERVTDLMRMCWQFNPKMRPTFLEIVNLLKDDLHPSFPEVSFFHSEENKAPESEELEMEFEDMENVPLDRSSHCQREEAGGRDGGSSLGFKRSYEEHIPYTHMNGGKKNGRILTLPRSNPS
Description for Adenylate cyclase type 1: Inhibition of Ca2+/ CAM stimulated human AC1 activity expressed in AC3 and AC6-knockout HEK293 cells assessed as A23187 stimulated cAMP accumulation incubated for 30 mins followed by A2318 stimulation in presence of IBMX for 1 hr by HTRF assay

Regarding `CCOc1cccc(C(=O)Nc2cc(C)nn2-c2nc(CC)cc(=O)[nH]2)c1`, the inhibition on Adenylate cyclase type 8 [1] stood at 11%. The IC50 on Adenylate cyclase type 8 [2] came out at 4.4 µM; on Adenylate cyclase type 1, 0.9 µM.
Regarding `CCc1cc(=O)[nH]c(-n2nc(C)cc2NC(=O)c2cccc(-c3ccccc3)c2)n1`, at Adenylate cyclase type 8 [1], the inhibition amounted to 37%. In addition, the figures for the IC50 on Adenylate cyclase type 8 [2] and against Adenylate cyclase type 1 were 0.57 µM and 0.25 µM, respectively.
Consider `CCc1cccc(C(=O)Nc2cc(C)nn2-c2nc(CC)cc(=O)[nH]2)c1`, for which the Activity result in the series with HEK293 is given as “Non-Toxic”. Besides, the inhibition on Adenylate cyclase type 8 [1] was found to be 12%; in [4], 28%; in series [6] (filed as antagonist), 49%; in series [7], 57%. Moreover, on Adenylate cyclase type 8 [3], the inhibition result was “Active”. Also, in [5], the solubility thermodynamic was 10.8 µM (≈ 3.8 µg/mL). Also, the figures for the IC50 at Adenylate cyclase type 8 [2] and against Adenylate cyclase type 1 were 3.5 µM and 0.44 µM, respectively.
Turning to `CCc1cc(=O)[nH]c(-n2nc(C)cc2NC(=O)c2ccccc2)n1`, the inhibition on Adenylate cyclase type 8 [1] came out at 0%. In addition, the IC50 on Adenylate cyclase type 8 [2] worked out at 35.9 µM; at Adenylate cyclase type 1, 2.8 µM.
For `CCc1ccc(C(=O)Nc2cc(C)nn2-c2nc(CC)cc(=O)[nH]2)cc1` the same measures were 19%, 6.6 µM and 0.39 µM.
For `CCc1cc(=O)[nH]c(-n2nc(C)cc2NC(=O)c2ccc(-c3ccccc3)cc2)n1` the same measures were 32%, 0.7 µM and 0.77 µM.
The corresponding values for `CCc1cc(=O)[nH]c(-n2nc(C)cc2NC(=O)c2ccccc2C)n1` are 11%, 15.7 µM and 2.2 µM.
On to `CCc1cc(=O)[nH]c(-n2nc(C)cc2NC(=O)c2cc(C)cc(C)c2)n1`, for which the inhibition at Adenylate cyclase type 8 [1] amounted to 27%. For the same molecule, the IC50 worked out at 1.7 µM at Adenylate cyclase type 8 [2] and 0.52 µM against Adenylate cyclase type 1.
The corresponding values for `CCc1cc(=O)[nH]c(-n2nc(C)cc2NC(=O)c2cccc(OC)c2)n1` are 5%, 9.6 µM and 1.42 µM.
As to `CCc1cc(=O)[nH]c(-n2nc(C)cc2NC(=O)c2ccc(C)c(C)c2)n1`, the Activity entry in the series with HEK293 is given as “Non-Toxic”. Further, the inhibition came to 27% at Adenylate cyclase type 8 [1], 32% in series [6] and 4% in series [7]. For the same molecule, at Adenylate cyclase type 8 [3], the inhibition result is “Active”. In addition, the “inhibition (INH)” value in [8] is 11%. For the same molecule, the solubility thermodynamic in [5] worked out at 7.6 µM (≈ 2.67 µg/mL). For the same molecule, the IC50 at Adenylate cyclase type 8 [2] stood at 0.71 µM; against Adenylate cyclase type 1, 0.29 µM.
`CCc1cc(=O)[nH]c(-n2nc(C)cc2NC(=O)c2ccccc2CC)n1`: the inhibition at Adenylate cyclase type 8 [1] stood at 21%. Also, the results for the IC50 at Adenylate cyclase type 8 [2] and at Adenylate cyclase type 1 were more than 60 µM and 3.1 µM, respectively.
For `CCc1cc(=O)[nH]c(-n2nc(C)cc2NC(=O)c2ccc(F)cc2)n1` the same measures were 52%, 0.78 µM and 0.79 µM.
On to `CCc1cc(=O)[nH]c(-n2nc(C)cc2NC(=O)c2cccc(Br)c2)n1`, for which the inhibition at Adenylate cyclase type 8 [1] came to 15%. Moreover, the values for the IC50 at Adenylate cyclase type 8 [2] and at Adenylate cyclase type 1 were 2.1 µM and 0.61 µM, respectively.
For `CCc1cc(=O)[nH]c(-n2nc(C)cc2NC(=O)c2cccc(SC)c2)n1` the same measures were 52%, 1.3 µM and 0.63 µM.
The corresponding values for `CCc1cc(=O)[nH]c(-n2nc(C)cc2NC(=O)c2cccc(C)c2F)n1` are 9%, more than 60 µM and 0.57 µM.
On to `CCc1cc(=O)[nH]c(-n2nc(C)cc2NC(=O)c2ccccn2)n1`, for which the inhibition on Adenylate cyclase type 8 [1] was 46%. In addition, on Adenylate cyclase type 8 [2], the IC50 was 2.8 µM.
Regarding `CCc1cc(=O)[nH]c(-n2nc(C)cc2NC(=O)c2ccco2)n1`, the inhibition at Adenylate cyclase type 8 [1] came out at 20%. The results for the IC50 on Adenylate cyclase type 8 [2] and against Adenylate cyclase type 1 were 15.7 µM and 6.7 µM, respectively.
The corresponding values for `CCc1cc(=O)[nH]c(-n2nc(C)cc2NC(=O)Cc2cccc(C)c2)n1` are 59%, more than 60 µM and 9.2 µM.
For `CCc1cc(=O)[nH]c(-n2nc(C)cc2NC(=O)c2cccc(C(C)C)c2)n1` the same measures were 28%, 2.6 µM and 0.36 µM.
`CCc1cc(=O)[nH]c(-n2nc(C)cc2NC(=O)c2ccc(OCOC)cc2)n1`: the values for the IC50 on Adenylate cyclase type 8 [2] and against Adenylate cyclase type 1 were more than 30 µM and 4.3 µM, respectively.
On to `CCc1cc(=O)[nH]c(-n2nc(C)cc2NC(=O)c2ccccc2F)n1`, for which the Activity result in the series with HEK293 is listed as “Non-Toxic”. Moreover, the inhibition on Adenylate cyclase type 8 [1] was determined as 46%. Also, the inhibition result at Adenylate cyclase type 8 [3] was “Active”. In addition, the Ki in [6] worked out at 1.3 µM. Moreover, the IC50 on Adenylate cyclase type 8 [2] is 1.9 µM; against Adenylate cyclase type 1, 1.4 µM.
Regarding `CCc1cc(=O)[nH]c(-n2nc(C)cc2NC(=O)c2ccc(O)cc2)n1`, the IC50 on Adenylate cyclase type 8 [2] and against Adenylate cyclase type 1 was more than 60 µM each time.
Regarding `CCc1cc(=O)[nH]c(-n2nc(C)cc2NC(=O)c2ccc(OC)cc2)n1`, the inhibition at Adenylate cyclase type 8 [1] was 0%. On Adenylate cyclase type 8 [2], the IC50 is more than 60 µM.
For `CCc1cc(=O)[nH]c(-n2nc(C)cc2NC(=O)c2ccc(C)cc2)n1`, the inhibition on Adenylate cyclase type 8 [1] amounted to 27%. Also, the IC50 at Adenylate cyclase type 8 [2] was more than 60 µM; against Adenylate cyclase type 1 it was 0.67 µM.
The corresponding values for `CCc1cc(=O)[nH]c(-n2nc(C)cc2NC(=O)c2cccc(C(F)(F)F)c2)n1` are 41%, 1.3 µM and 0.68 µM.
As for `CCc1cc(=O)[nH]c(-n2nc(C)cc2NC(=O)c2cccc(C)c2)n1`, the Activity entry with HEK293 is recorded as “Non-Toxic”. In addition, the inhibition on Adenylate cyclase type 8 [1] is 27%. Moreover, on Adenylate cyclase type 8 [3], the inhibition result is “Active”. For the same molecule, the solubility thermodynamic in [5] was 19.5 µM (≈ 6.58 µg/mL). Further, the Ki in series [6] came out at 0.9 µM. Further, the IC50 on Adenylate cyclase type 8 [2] stood at 2.7 µM; against Adenylate cyclase type 1, 0.41 µM.
Regarding `CCc1cc(=O)[nH]c(-n2nc(C)cc2NC(=O)c2cccc(C3CC3)c2)n1`, the inhibition on Adenylate cyclase type 8 [1] came out at 17%. The values for the IC50 on Adenylate cyclase type 8 [2] and at Adenylate cyclase type 1 were 1.9 µM and 0.81 µM, respectively.
On to `CCc1cc(=O)[nH]c(-n2nc(C)cc2NC(=O)c2ccc(Cl)cc2)n1`, for which the inhibition at Adenylate cyclase type 8 [1] stood at 53%. In addition, the IC50 on Adenylate cyclase type 8 [2] amounted to 2.5 µM; against Adenylate cyclase type 1 it was 0.36 µM.
Consider `CCc1cc(=O)[nH]c(-n2nc(C)cc2NC(=O)c2ccc(C(C)(C)C)cc2)n1`, for which, on Adenylate cyclase type 8 [1], the inhibition was determined as 35%. Also, the IC50 at Adenylate cyclase type 8 [2] came out at 1.2 µM; on Adenylate cyclase type 1 it was 0.97 µM.
Regarding `CCc1cc(=O)[nH]c(-n2nc(C)cc2NC(=O)Cc2ccccc2F)n1`, the IC50 was determined as 3.4 µM at Adenylate cyclase type 8 [2] and 16.3 µM at Adenylate cyclase type 1.
For the molecule `CN1CC[C@]23c4c5ccc(O)c4O[C@H]2[C@@H](O)C=C[C@H]3[C@H]1C5`, in the series with Mus musculus, the result was Active.
As for `CCc1cc(=O)[nH]c(-n2nc(C)cc2NC(=O)c2cccc(C(C)(C)C)c2)n1`, the inhibition at Adenylate cyclase type 8 [1] was found to be 25%. For the same molecule, the IC50 at Adenylate cyclase type 8 [2] was found to be 0.38 µM; against Adenylate cyclase type 1 it was 0.88 µM.
Turning to `CCc1cc(=O)[nH]c(-n2nc(C)cc2NC(C)=O)n1`, the IC50 on Adenylate cyclase type 8 [2] was 10.6 µM; against Adenylate cyclase type 1, more than 30 µM.
On to `CCc1cc(=O)[nH]c(-n2nc(C)cc2NC(=O)c2cccc(Cl)c2)n1`, for which, on Adenylate cyclase type 8 [1], the inhibition was 48%. The IC50 on Adenylate cyclase type 8 [2] worked out at 1 µM; against Adenylate cyclase type 1, 0.47 µM.
As for `CCc1cc(=O)[nH]c(-n2nc(C)cc2NC(=O)c2ccc(N(C)C)cc2)n1`, the inhibition at Adenylate cyclase type 8 [1] came out at 39%. The IC50 is 1 µM at Adenylate cyclase type 8 [2] and 2.3 µM at Adenylate cyclase type 1.
For `CCc1cc(=O)[nH]c(-n2nc(C)cc2NC(=O)c2cccc(F)c2)n1` the same measures were 55%, 1.6 µM and 1.4 µM.

For the origin of these results see ChEMBL document CHEMBL5154791, “Optimization of a Pyrimidinone Series for Selective Inhibition of Ca2+/Calmodulin-Stimulated Adenylyl Cyclase 1 Activity for the Treatment of Chronic Pain” (J Med Chem, 2022).
